From patent US20220339179A1, “TREATMENT OF HR DEFICIENT CANCER” (THE FRANCIS CRICK INSTITUTE LIMITED, priority 2019, published 2022)

Tests used:
recombinant human DNPH1 = biological target: T1, recombinant human DNPH1 (Homo sapiens, UniProt O43598); assay: DNPH1 in vitro activity assay (RP-HPLC); format: biochemical; settings: for DNPH1 activity towards nucleoside monophosphate substrates: DNPH1 4 μM, substrate 1 mM, 45 min, RP-HPLC
T1 construct: His6 (N); made in house; host or cells: E. coli BL21 (pET28a)
T1 sequence (O43598 1-174): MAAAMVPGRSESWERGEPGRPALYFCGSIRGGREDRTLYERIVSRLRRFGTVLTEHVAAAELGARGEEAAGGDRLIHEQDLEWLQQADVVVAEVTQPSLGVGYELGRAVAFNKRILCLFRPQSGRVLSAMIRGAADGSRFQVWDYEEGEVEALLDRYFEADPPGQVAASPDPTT
Experimental: HIS6DNPH1 and HIS6DNPH1E105Q, cloned in pET28a were transformed into BL21 cells. Transformed cells were inoculated into 2 L of TB media supplemented with 50 μg/ml kanamycin and incubated 37° C. until an OD600=1.0. IPTG (0.5 mM) was added and incubation continued for 4 hours. Cells were harvested by centrifugation and resuspended in lysis buffer (50 mM HEPES pH 7.5, 300 mM NaCl, 5% glycerol, 0.5 mM TCEP) supplemented with protease inhibitors (Complete EDTA-free tablets, Roche). Cells were lysed by passage through an Emulsiflex C5 (Avestin) at […], and the chromatin sheared by sonication at 50% maximum amplitude for 2×30 sec. Soluble proteins were isolated by ultracentrifugation (Beckman Type JLA25.50 rotor) at 60,000×g for 60 min (4° C.). Soluble extract was supplemented with 30 mM imidazole and incubated with 2 ml Ni-NTA beads (GE Healthcare) for 1 hour (4° C.). The beads were washed (50 mM HEPES pH 7.5, 300 mM NaCl, 30 mM imidazole, 5% glycerol, 0.5 mM TCEP) and protein eluted (50 mM HEPES pH7.5, 300 mM NaCl, 200 mM imidazole, 5% glycerol, 0.5 mM TCEP). The eluates were pooled, diluted dropwise to 100 mM NaCl (50 mM HEPES pH 7.5, 5% glycerol, 0.5 mM DTT) and DNPH1 further purified using a 5 ml HiTRAP QHP column (GE Healthcare), followed by a Superdex 200 Increase 10/300 column (GE Healthcare). Peak fractions were separated by SDS-PAGE and visualized with Instant Blue (Gentaur). Peak fractions were frozen in aliquots and stored at −80° C.
DNPH1 (4 μM) was incubated with nucleoside monophosphates (1 mM) in 20 mM sodium phosphate, pH 7.0, 150 mM NaCl, 2 mM MgCl2. After 45 min at room temperature the reaction was quenched by addition of 0.7% perchloric acid followed by immediate neutralization with addition of sodium acetate to 200 mM. Samples were diluted 1:10 into RP-Buffer (100 mM K2HPO4/KH2PO4, pH 6.5, 10 mM tetrabutylammonium bromide, 7% acetonitrile) and the nucleotides and reaction products separated from precipitated protein by filtration through a 0.22 μm centrifugal filter (Durapore-PVDF, Millipore). Samples of each reaction (5 nmol) were applied to a Zorbax SB-C18 column (4.6×250 mm, 3.5 μm, 80A pore size, Agilent Technologies), maintained at 30° C. and mounted on a Jasco HPLC system controlled by Chromnav software (v1.19, Jasco). Nucleoside monophosphates and reaction products were separated under isocratic flow by application of RP-Buffer at 1 mL/min. Absorbance data from the column eluent was continuously monitored between 200-400 nm (2 nm interval) using an MD-2010 photodiode array detector (JASCO). […] Peak integration of the absorbance data recorded at 260 nm was used to quantify the amount of substrate and product. […] The rate was determined by linear regression of a plot of product against reaction time.

eHAP MUS81−/− cells = assay: Cell viability assay (CellTiter-Glo), eHAP MUS81−/− cells; format: cell-based, human; settings: for effect on viability, agent alone: single agent
Experimental: (§1) For analysis of cell viability following exposure to olaparib (Selleckchem), deoxyribonucleosides and DNPH1i (N6-benzyladenosine, Carbosynth), cells were seeded in 96-well plates at a density of 100-500 cells per well. Twenty-four hours post-seeding, drug treatments were initiated, and cells were continuously exposed until termination of the experiment. Cell viability was measured using CellTiter-Glo (Promega). The surviving fractions were measured, and drug sensitivity curves were plotted using GraphPad Prism. The following nucleosides were purchased from commercial sources: dU (2′-deoxyuridine), hdU (5-hydroxy-2′-deoxyuridine), hmdU (5-hydroxymethyl-2′-deoxyuridine), mdC (5-methyl-2′-deoxycytidine), hmdC (5-hydroxymethyl-2′-deoxycytidine), cadC (5-carboxy-2-deoxycytidine), fodC (5-formyl-2-deoxycytidine), dl (2′-deoxyinosine), dX (2′-deoxyxanthosine), 8odG (8-oxo-2′-deoxyguanosine), hmU (5 hydroxymethyluridine), hmC (5-hydroxymethyl-cytidine). fodU (5-formyl-2′-deoxyuridine) was synthesized as previously described (Guo et al Org. Biomol. Chem. 11, 1610-1613 (2013).

[1] = tested on: eHAP MUS81−/−DNPH1−/− cells; assay: Cell viability assay (CellTiter-Glo), eHAP MUS81−/−DNPH1−/− cells; format: cell-based, human; settings: for sensitisation to PARP inhibitor by loss of DNPH1: vs MUS81 k/o cells, continuous treatment 6 days; for sensitivity of MUS81/DNPH1 k/o cells to nucleoside treatment (cell viability): nucleoside 200 nM, vs MUS81 k/o
Experimental: as §1

[2] = tested on: SUM149 BRCA1mut (parental) cells; assay: Cell viability assay, SUM149 BRCA1mut (parental) cells; format: cell-based, human; settings: olaparib 250 nM or hmdU 2 μM, 8 days
Experimental: as §1

[3] = tested on: eHAP WT and MUS81−/− isogenic cells; assay: LD80 dose used in genome-wide CRISPR-Cas9 screen; format: cell-based, human; settings: 10 days
Experimental: eHAP WT and MUS81−/− isogenic cells were transduced with a genome-wide lentiviral lentiCRISPRv2 sgRNA library (Doench et al 2016, PMID: 26780180) using multiplicity of infection (MOI) of ˜0.5 with a complexity of 400 cells/sgRNA. Transduced cells were selected with puromycin (0.4 mg/ml), expanded for 7 days, and sub-cultured in the presence or absence of an LD80 dose of olaparib (200 nM) or hmdC (1000 nM) for 10 days. Surviving cells were collected and genomic DNA was extracted using DNeasy Blood & Tissue Kit (Qiagen) supplemented with RNAse (Qiagen) according to the manufacturer's instructions. The CRISPR screens were carried out in biological triplicates. Libraries for Illumina sequencing were generated by two-step PCR amplification. In the first PCR, the sgRNA library was amplified and adaptors were added using nesting primers and the second PCR added barcodes, stagger regions, flow cell attachment and Illumina sequencing primers.
MUS81 k/o cells were transduced with the lentiviral-based Brunello genome-wide gRNA library (J. G. Doench et al Nat. Biotechnol. 34, 184-191 (2016)), followed by treatment with olaparib for 10 days. […] Bioinformatic analysis of the gRNA reads using the MAGeCK algorithm identified several novel, as well as previously reported, factors determining PARPi efficacy (FIG. 1).

DLD1 BRCA2−/− cells = assay: Cell viability assay, DLD1 BRCA2−/− cells; format: cell-based; settings: olaparib 10 nM or hmdU 2 μM, 10 days
Experimental: as §1

DCTD k/o cell lines = assay: Cell viability, DCTD k/o cell lines; format: cell-based
Experimental: as §1

| SMILES | DNPH1 activity towards nucleoside monophosphate substrates (recombinant human DNPH1) | effect on viability, agent alone (eHAP MUS81−/− cells) | sensitisation to PARP inhibitor by loss of DNPH1 [1] | further results |
| --- | --- | --- | --- | --- |
| O=c1ccn([C@@H]2O[C@H](COP(=O)(O)O)[C@@H](O)[C@H]2O)c(=O)[nH]1 [UMP] | Little or no activity | – | – | – |
| OC[C@H]1O[C@@H](n2cnc3c(NCc4ccccc4)ncnc32)[C@H](O)[C@@H]1O [DNPH1i, N6-benzyladenosine] | – | no effect on viability | – | effect of DNPH1i on viability (specificity control) (eHAP MUS81−/− cells; with hmdU, 6 days, cells with DNPH1 (text: wild-type)): dose-dependent decrease in viability; effect of DNPH1i on viability (specificity control) ([1]; with hmdU, 6 days, DNPH1 k/o cells): only a marginal effect |
| Cn1ncnc1[C@H]1c2n[nH]c(=O)c3cc(F)cc(c23)N[C@@H]1c1ccc(F)cc1 [talazoparib, (8S,9R)-5-Fluoro-8-(4-fluorophenyl)-9-(1-methyl-1H-1,2,4-triazol-5-yl)-2,7,8,9-tetrahydro-3H-pyrido[4,3,2-de]phthalazin-3-one] | – | limited effect on viability | sensitised | – |
| O=c1[nH]c(=O)n([C@H]2C[C@H](O)C(COP(=O)(O)O)O2)cc1CO (some centres unmarked) [hmdUMP] | efficiently hydrolyzed | – | – | reaction rate of hmdUMP hydrolysis by DNPH1 (recombinant human DNPH1; DNPH1 (2 μM), samples quenched at intervals up to 20 minutes, linear regression): 14.6 ± 0.4 µM/min |
| O=C(c1cc(Cc2n[nH]c(=O)c3ccccc23)ccc1F)N1CCN(C(=O)C2CC2)CC1 [olaparib, 1-(Cyclopropylcarbonyl)-4-[5-[(3,4-dihydro-4-oxo-1-phthalazinyl)methyl]-2-fluorobenzoyl]piperazine] | – | limited effect on viability | sensitized | effect on viability, agent alone [2]: limited effect on viability; LD80 dose [3]: 200 nM; effect on viability, agent alone (DLD1 BRCA2−/− cells): limited effect on viability |
| Nc1nc(=O)n([C@H]2C[C@H](O)[C@@H](CO)O2)cc1CO [hmdC, 5-hydroxymethyl-2′-deoxycytidine] | – | – | – | LD80 dose [3]: 1000 nM; resistance of DCTD k/o cells to nucleoside treatment (DCTD k/o cell lines): completely resistant; sensitivity of MUS81/DNPH1 k/o cells to nucleoside treatment (cell viability) ([1]; 6 days): to a lesser extent |
| O=c1ccn([C@H]2C[C@H](O)[C@@H](COP(=O)(O)O)O2)c(=O)[nH]1 [dUMP] | Little or no activity | – | – | – |
| C[C@]1(c2nc3c(C(N)=O)cccc3[nH]2)CCCN1 [veliparib, 2-[(2R)-2-Methyl-2-pyrrolidinyl]-1H-benzimidazole-4-carboxamide] | – | limited effect on viability | sensitised | – |
| O=Cc1cn([C@H]2C[C@H](O)[C@@H](CO)O2)c(=O)[nH]c1=O [fodU, 5-formyl-2′-deoxyuridine] | – | – | – | sensitivity of MUS81/DNPH1 k/o cells to nucleoside treatment (cell viability) ([1]; 6 days): to a lesser extent |
